{
  "source": "patent US7092825B1",
  "about": "“Protein engineering” (The University of Queensland, priority 1998, dated 2006)",
  "key": {"[1]": {"target": "T1, human Growth Hormone Receptor (hGHR) (Homo sapiens, UniProt P10912)", "T1 construct": "expressed in transfected cells; host or cells: BaF-B03 (BaF3) pro-B cells", "T1 sequence (P10912 19-638)": "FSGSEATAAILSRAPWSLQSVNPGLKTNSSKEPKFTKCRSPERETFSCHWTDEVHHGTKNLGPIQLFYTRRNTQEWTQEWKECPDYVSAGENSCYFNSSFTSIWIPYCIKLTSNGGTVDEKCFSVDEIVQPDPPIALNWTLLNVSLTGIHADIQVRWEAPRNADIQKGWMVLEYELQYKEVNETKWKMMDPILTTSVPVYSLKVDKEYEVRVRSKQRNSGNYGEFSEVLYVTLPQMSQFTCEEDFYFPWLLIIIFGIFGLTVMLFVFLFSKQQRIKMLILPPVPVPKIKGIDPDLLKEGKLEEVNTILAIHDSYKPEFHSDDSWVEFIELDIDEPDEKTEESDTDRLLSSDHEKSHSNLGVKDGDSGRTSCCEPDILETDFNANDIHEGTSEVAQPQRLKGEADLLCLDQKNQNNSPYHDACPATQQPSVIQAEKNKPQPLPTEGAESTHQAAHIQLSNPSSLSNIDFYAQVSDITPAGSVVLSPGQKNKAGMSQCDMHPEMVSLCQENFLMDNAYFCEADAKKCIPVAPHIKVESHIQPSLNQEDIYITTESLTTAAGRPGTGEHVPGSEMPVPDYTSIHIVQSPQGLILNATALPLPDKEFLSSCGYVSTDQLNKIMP", "assay": "Growth Hormone proliferation assay (hGH-stimulated BaF3 cell proliferation, MTT)", "assay_type": "cell-based", "conditions": "inhibition of BaF3 cell proliferation in response to 0.5 ng/mL hGH; read-out: calculated Ki", "procedure": "SCY01 was tested for biological function by bioassay using the BaF3 cell line, which cells normally respond to GH. SCY01 was assayed at various concentrations to check its ability to inhibit BaF3 cell proliferation in response to either 0.5 ng/mL hGH, or as a control, 50 Units/mL IL-3.\nBaF-B03 cells (a pro B cell line) that stably express the human Growth Hormone Receptor (hGHR) are used in this assay since they are able to elicit a GH-specific response at concentrations as low as 0.1 ng/mL hGH (4.54 pM). These cells also endogenously express the IL3 receptor and require IL3 or GM-CSF to survive in culture. The assay is based on that of Mossman, 1983, J. Immunol. Meth. 65 55, and involves the following procedure:— • (i) culture cells in RPMI-1640 medium supplemented with 10% (v/v) foetal bovine serum (FBS) and 100 units/mL IL3 under 5% CO2 at 37° C. Allow the culture to reach mid-log growth phase; • (ii) centrifuge cells at 500×g and wash with PBS to remove IL3 from the culture medium. Repeat the centrifugation and resuspend in 1 mL of RPMI-1640 plus 0.5% (v/v) FBS. […] Allow plate to rest in the dark for 5 minutes before reading; • (x) read plate at 595 nm on a microplate reader. Values obtained are directly proportional to cell number (as measured by mitochondrial dehydrogenase levels)."}, "[2]": {"assay": "Blood serum stability test (RP-HPLC)", "assay_type": "in vitro ADME", "conditions": "37° C.", "from_the_text": "Preliminary studies evaluated the bioavailability of SCY01 by exposing it to a variety of proteases (trypsin, chymotrypsin and pepsin) and blood serum proteins as described in MATERIALS AND METHODS. The results of the blood serum stability test are presented in Table 2, and the results of the enzyme stability tests are presented in Table 3. […] Thus emphasising the favourable chemical characteristics of disulfide-rich proteins.\nBlood was collected in heparinised tubes by venapuncture. The blood was centrifuged at 5000 rpm for 20 mins and the serum decanted. The blood serum was stored at −20° C. A sample of the blood serum (900 μL) was incubated with 100 μL of the stock peptide solution (1 mg/mL in H2O) at 37° C. and aliquots (100 μL) removed at the required time. A solution of 50% CH3CN 0.1% TFA was added to precipitate the blood serum proteins and centrifuged at 13000 rpm for 5 mins. A sample of this solution (100 μL) was analysed by RP-HPLC (Vydac C18 218TP54 250×4.1 mm id 1%/min gradient H2O/CH3CN 0.1% TFA) to detect peptide digestion."}, "pepsin": {"system": "pepsin", "assay": "Enzyme stability test, pepsin", "assay_type": "in vitro ADME", "conditions": "pepsin 1% w:v, pH 2.2, 37° C.", "procedure": "To the stock peptide solution (100 μL) was added H2O (800 μL) and 0.1 M HCl (100 μL) to pH 2.2. Pepsin was added to give a 1% w:v solution and incubated at 37° C. Aliquots were removed at 0 h, 1 h and 24 hrs and analysed by RP-HPLC."}, "α-chymotrypsin": {"system": "α-chymotrypsin", "assay": "Enzyme stability test, chymotrypsin", "assay_type": "in vitro ADME", "conditions": "chymotrypsin 5% w:v, NH4HCO3 pH 8.3, 37° C.", "procedure": "To the stock peptide solution (100 μL) was added 900 μL NH4HCO3 (pH 8.3). Chymotrypsin was added to 5% w:v and incubated at 37° C. Aliquots were removed at 0 hr, 1 hr and 24 hrs and analysed by RP HPLC."}, "trypsin": {"system": "trypsin", "assay": "Enzyme stability test, trypsin", "assay_type": "in vitro ADME", "conditions": "trypsin 5% w:v, NH4HCO3 pH 8.3, 37° C.", "procedure": "To the peptide solution (NH4HCO3, pH 8.3, 0.87 mg/mL) was added trypsin (5% w:v). Samples were incubated at 37° C. and aliquots removed at 0, 1, 3 and 18 hrs and analysed by RP-HPLC as above."}},
  "note": "Positions of bridges follow the written chain, without caps; N, C: chain ends. Residues, ends and D or L forms follow the SMILES beside them.",
  "data": [
    {"compound": "CC[C@H](C)[C@@H]1NC(=O)[C@@H]2CSSC[C@H](NC(=O)[C@H](Cc3ccccc3)NC(=O)[C@H](C)N)C(=O)N[C@@H](CC(N)=O)C(=O)N[C@@H](CC(C)C)C(=O)N[C@@H](CCCNC(=N)N)C(=O)N[C@@H](CCCCN)C(=O)N[C@H]3CSSC[C@H](NC(=O)[C@H](CCCCN)NC(=O)[C@H](CC(=O)O)NC(=O)CNC1=O)C(=O)N[C@@H](CCC(=O)O)C(=O)N[C@H](C(=O)N[C@H](C(=O)N[C@@H](CCCCN)C(N)=O)C(C)C)CSSC[C@H](NC(=O)[C@H](CCCCN)NC(=O)[C@H](CC(=O)O)NC(=O)[C@H](CCC(N)=O)NC3=O)C(=O)N[C@@H](CCC(=O)O)C(=O)N[C@@H]([C@@H](C)O)C(=O)N[C@@H](Cc1ccccc1)C(=O)NCC(=O)N[C@@H](CC(C)C)C(=O)N[C@@H](CC(C)C)C(=O)NCC(=O)N[C@@H](CCCCN)C(=O)N2", "note": "[SCY01] (H-AFCNLRKCQDKCETFGLLGKCIGDKCECVK-NH2; disulfide 3-21, 8-26, 12-28)", "values": [
      {"measurement": "Ki", "setting": "[1]", "value": "~200", "unit": "µM"},
      {"measurement": "Blood serum stability test result, 0 hr", "setting": "[2]; 0 hr", "value": "stable"},
      {"measurement": "Blood serum stability test result, 1 hr", "setting": "[2]; 1 hr", "value": "stable"},
      {"measurement": "Blood serum stability test result, 24 hrs", "setting": "[2]; 24 hrs", "value": "stable"},
      {"measurement": "Enzyme stability test result, pepsin", "setting": "pepsin", "value": "Stable over 18 hrs"},
      {"measurement": "Enzyme stability test result, α-chymotrypsin", "setting": "α-chymotrypsin", "value": "Stable over 18 hrs"},
      {"measurement": "Enzyme stability test result, trypsin", "setting": "trypsin", "value": "Stable over 18 hrs"}
    ]}
  ]
}
